Consider one molecule from patent EP0154886A2, “Carboxyalkyl dipeptide derivatives, process for their preparation, agents containing them, and their use” (HOECHST AKTIENGESELLSCHAFT, priority 1984, dated 1985).

For assay [1], the system named is durch intravenöse Gabe von 310 ng Angiotensin hervorgerufene Pressorreaktion. In words: Inhibition of the angiotensin-induced pressor response in the anaesthetised rat after intraduodenal administration. The format is in vivo, Ratte. The settings on record: narcotised rat. On the procedure:
Die erfindungsgemäßen Verbindungen der Formel I sind Hemmer des Angiotensin-Converting-Enzyme (ACE), das die Umwandlung von Angiotensin I in das pressorisch wirksame Angiotensin II katalysiert. […] Besonders interessant ist hierbei der langsame Wirkungseintritt und die lange Wirkdauer der Verbindung. So beobachtet man bei intraduodenaler Gabe von 0,3 mg/kg Körpergewicht eine Hemmung um 15 % nach 10 min, 30 % nach 20 min, 60 % nach 30 min und 70 % nach 45 min; die Wirkung hält länger als 6 Stunden an.

In assay [2] the target is Angiotensin-Converting-Enzyme (ACE) (Homo sapiens, UniProt P12821). Put plainly: ACE inhibition in vitro assay (Biochem. Biophys. Acta, 206, 136 (1970)). The class given is biochemical.
Angiotensin-Converting-Enzyme (ACE), sequence (P12821 30-1306, species assumed): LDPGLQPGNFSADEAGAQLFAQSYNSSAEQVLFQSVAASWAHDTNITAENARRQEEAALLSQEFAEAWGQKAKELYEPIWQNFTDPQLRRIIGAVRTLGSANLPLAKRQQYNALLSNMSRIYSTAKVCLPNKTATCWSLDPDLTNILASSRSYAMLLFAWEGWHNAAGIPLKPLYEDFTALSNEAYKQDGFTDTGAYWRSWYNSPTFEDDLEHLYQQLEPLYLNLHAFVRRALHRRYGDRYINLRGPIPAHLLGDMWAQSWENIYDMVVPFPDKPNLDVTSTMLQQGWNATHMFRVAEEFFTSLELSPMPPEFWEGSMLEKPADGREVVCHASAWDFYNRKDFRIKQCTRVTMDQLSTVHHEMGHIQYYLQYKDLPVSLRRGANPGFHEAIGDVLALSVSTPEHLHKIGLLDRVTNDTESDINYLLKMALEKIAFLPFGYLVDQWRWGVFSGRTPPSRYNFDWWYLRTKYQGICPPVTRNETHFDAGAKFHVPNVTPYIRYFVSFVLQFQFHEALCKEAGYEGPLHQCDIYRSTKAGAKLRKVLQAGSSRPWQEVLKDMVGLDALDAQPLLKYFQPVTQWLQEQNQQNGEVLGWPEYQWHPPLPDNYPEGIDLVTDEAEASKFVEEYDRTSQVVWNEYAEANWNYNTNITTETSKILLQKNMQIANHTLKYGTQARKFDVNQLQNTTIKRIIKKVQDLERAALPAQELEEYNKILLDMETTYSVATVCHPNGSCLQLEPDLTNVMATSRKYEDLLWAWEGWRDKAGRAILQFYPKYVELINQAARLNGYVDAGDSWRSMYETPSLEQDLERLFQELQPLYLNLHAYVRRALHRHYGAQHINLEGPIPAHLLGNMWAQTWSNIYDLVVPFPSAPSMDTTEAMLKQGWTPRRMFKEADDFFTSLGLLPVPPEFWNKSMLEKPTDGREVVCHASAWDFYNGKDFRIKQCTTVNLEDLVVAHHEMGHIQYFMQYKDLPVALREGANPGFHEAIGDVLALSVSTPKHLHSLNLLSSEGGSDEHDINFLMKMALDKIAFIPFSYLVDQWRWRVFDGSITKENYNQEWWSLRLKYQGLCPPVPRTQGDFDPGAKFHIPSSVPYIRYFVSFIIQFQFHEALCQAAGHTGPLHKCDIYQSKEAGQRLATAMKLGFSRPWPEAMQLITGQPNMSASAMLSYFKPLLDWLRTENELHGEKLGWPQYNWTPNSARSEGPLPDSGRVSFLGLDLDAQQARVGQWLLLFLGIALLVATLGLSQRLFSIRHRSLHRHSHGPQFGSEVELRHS

Turning to `NCCCC[C@H](N[C@@H](CCC1CCCCC1)C(=O)O)C(=O)N1[C@H](C(=O)O)C[C@@H]2CCCC[C@@H]21` [N-(1-S-CarboxY-3-cyclohexyl-propyl)-S-lysyl-2S,3aS,7aS-octahydroindol-2-carbonsäure], the Hemmung in assay [1] (intraduodenal 0,3 mg/kg Körpergewicht, after 10 min) was determined as 15%; in assay [1] (intraduodenal 0,3 mg/kg Körpergewicht, after 20 min), 30%; in assay [1] (intraduodenal 0,3 mg/kg Körpergewicht, after 30 min), 60%; in assay [1] (intraduodenal 0,3 mg/kg Körpergewicht, after 45 min), 70%. The “Wirkdauer (die Wirkung hält an)” value in assay [1] (intraduodenal 0,3 mg/kg Körpergewicht, duration of effect) is above 6 Stunden. The “Hemmwirkung auf die Pressorreaktion” value in assay [1] (intraduodenal administration, 310 ng Angiotensin i.v., qualitative) was “starke Hemmwirkung”. The IC50 – broadly, the point on the concentration scale where inhibition reaches its midpoint – in assay [2] stood at 3.4 nM.
